Here are results for 32 compounds from patent publication US8765940B2 (priority 2009, dated 2014).

The test has as its target PI3Kδ (Homo sapiens (Human), UniProt O00329). The format is biochemical. As to conditions: PI3Kδ Alphascreen assay.

Chain of PI3Kδ (O00329 whole entry): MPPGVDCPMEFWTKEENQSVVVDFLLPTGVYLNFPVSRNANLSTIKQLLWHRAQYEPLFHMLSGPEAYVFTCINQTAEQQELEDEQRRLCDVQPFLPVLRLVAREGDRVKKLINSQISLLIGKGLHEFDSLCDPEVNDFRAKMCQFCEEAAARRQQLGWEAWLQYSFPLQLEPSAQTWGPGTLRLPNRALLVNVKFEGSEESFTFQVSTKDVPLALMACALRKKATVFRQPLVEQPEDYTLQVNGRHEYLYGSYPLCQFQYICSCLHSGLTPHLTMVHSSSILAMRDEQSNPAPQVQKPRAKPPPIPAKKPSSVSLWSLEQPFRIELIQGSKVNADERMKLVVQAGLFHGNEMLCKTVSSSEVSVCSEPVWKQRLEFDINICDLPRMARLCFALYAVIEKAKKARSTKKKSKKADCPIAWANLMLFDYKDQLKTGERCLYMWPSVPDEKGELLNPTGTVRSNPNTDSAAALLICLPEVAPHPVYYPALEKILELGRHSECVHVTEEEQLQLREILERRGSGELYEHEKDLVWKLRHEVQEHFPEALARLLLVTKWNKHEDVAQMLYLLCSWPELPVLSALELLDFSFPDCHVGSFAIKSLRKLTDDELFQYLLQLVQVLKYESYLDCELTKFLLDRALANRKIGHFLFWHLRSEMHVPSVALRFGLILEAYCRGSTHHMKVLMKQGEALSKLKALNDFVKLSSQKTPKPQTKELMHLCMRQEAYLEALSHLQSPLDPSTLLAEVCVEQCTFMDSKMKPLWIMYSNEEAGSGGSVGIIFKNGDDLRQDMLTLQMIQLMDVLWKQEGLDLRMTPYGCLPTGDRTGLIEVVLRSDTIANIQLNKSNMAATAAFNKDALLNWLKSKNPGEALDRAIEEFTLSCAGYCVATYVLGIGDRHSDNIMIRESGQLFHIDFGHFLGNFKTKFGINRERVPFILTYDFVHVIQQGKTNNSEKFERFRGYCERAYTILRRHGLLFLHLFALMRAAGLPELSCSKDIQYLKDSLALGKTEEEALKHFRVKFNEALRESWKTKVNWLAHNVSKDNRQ
Chain of PI3Kδ (P27986 whole entry partner): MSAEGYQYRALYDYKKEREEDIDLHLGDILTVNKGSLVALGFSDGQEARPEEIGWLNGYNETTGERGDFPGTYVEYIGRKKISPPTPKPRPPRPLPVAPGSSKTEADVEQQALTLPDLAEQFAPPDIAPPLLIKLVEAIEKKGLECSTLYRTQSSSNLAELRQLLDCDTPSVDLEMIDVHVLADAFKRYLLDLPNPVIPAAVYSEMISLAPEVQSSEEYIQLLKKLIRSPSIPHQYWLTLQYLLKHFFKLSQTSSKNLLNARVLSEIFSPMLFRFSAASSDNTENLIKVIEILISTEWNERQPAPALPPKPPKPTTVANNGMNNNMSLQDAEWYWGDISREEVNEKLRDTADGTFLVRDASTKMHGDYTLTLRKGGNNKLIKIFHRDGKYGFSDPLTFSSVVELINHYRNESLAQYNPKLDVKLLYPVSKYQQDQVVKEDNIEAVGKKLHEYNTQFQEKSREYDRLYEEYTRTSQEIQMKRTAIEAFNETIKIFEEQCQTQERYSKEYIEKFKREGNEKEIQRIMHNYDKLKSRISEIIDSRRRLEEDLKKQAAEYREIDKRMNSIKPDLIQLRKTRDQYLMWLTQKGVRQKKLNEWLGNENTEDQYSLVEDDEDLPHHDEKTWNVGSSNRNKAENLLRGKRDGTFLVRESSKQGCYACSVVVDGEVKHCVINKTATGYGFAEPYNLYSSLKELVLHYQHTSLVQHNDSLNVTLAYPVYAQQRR

For orientation: Ki means a dissociation constant, usually derived from enzyme kinetics or from competition with a known ligand. A higher Ki goes with lower affinity. As for `Cc1c(-c2ccccn2)nc2cc(F)ccc2c1N1CC2(CCOCC2)c2nc(N)c(N3CCOCC3)cc21` [1′-(7-fluoro-3-methyl-2-(2-pyridinyl)-4-quinolinyl)-6′-(4-morpholinyl)-1′,2,2′,3,5,6-hexahydrospiro[pyran-4,3′-pyrrolo[3,2-b]pyridin]-5′-amine], the Ki stood at 29 nM.
The compound `Cc1cc(Cl)c2nc(C)c(C)c(N3CC(C)(C)c4ccc(N5CCOCC5)cc43)c2c1` [8-chloro-4-(3,3-dimethyl-6-(4-morpholinyl)-2,3-dihydro-1H-indol-1-yl)-2,3,6-trimethylquinoline] had a Ki of 3180 nM. This Ki lies about 110-fold higher than the previous one.
The compound `Cc1c(N2CCOC(C)(C)C2)nc2cc(F)cc(F)c2c1N1CC(C)(C)c2ncc(N3CCOCC3)cc21` [2-(2,2-dimethyl-4-morpholinyl)-4-(3,3-dimethyl-6-(4-morpholinyl)-2,3-dihydro-1H-pyrrolo[3,2-b]pyridin-1-yl)-5,7-difluoro-3-methylquinoline] returned a Ki of 1.52 nM.
On to `Cc1c(-c2ccccc2)nc2ccccc2c1N1CC2(CCOCC2)c2ccc(N3CCOCC3)cc21` [1-(3-methyl-2-phenyl-4-quinolinyl)-6-(4-morpholinyl)-1,2,2′,3′,5′,6′-hexahydrospiro[indole-3,4′-pyran]], for which affinity was put at a Ki of 91.3 nM.
To `COc1cc2nc(C)c(C)c(N3CC(C)(C)c4ccc(N5CCOCC5)cc43)c2cc1C` [4-(3,3-dimethyl-6-(4-morpholinyl)-2,3-dihydro-1H-indol-1-yl)-7-methoxy-2,3,6-trimethylquinoline] belongs 622 nM; to `Cc1cc(C)cc(-c2nc3cc(F)ccc3c(N3CC(C)(C)c4ncc(N5CCOCC5)cc43)c2C)c1` [4-(3,3-dimethyl-6-(4-morpholinyl)-2,3-dihydro-1H-pyrrolo[3,2-b]pyridin-1-yl)-2-(3,5-dimethylphenyl)-7-fluoro-3-methylquinoline], 15.6 nM; to `Cc1c(-c2ccccn2)nc2cc(F)ccc2c1N1CC2(CS(=O)(=O)C2)c2ccc(N3CCOCC3)cc21` [1-(7-fluoro-3-methyl-2-(2-pyridinyl)-4-quinolinyl)-6-(4-morpholinyl)-1,2-dihydrospiro[indole-3,3′-thietane] 1′,1′-dioxide], 80.5 nM.
`Cc1nc2c(C)cccc2c(N2CC3(CCOCC3)c3ccc(N4CCOCC4)cc32)c1C` [6-(4-morpholinyl)-1-(2,3,8-trimethyl-4-quinolinyl)-1,2,2′,3′,5′,6′-hexahydrospiro[indole-3,4′-pyran]] gave a Ki of 121 nM. Against the preceding compound, the Ki is about 1.5-fold higher.
To `Cc1ccnc(-c2nc3cc(F)ccc3c(N3CC(C)(C)c4ncc(N5CCOCC5)cc43)c2C)c1` [4-(3,3-dimethyl-6-(4-morpholinyl)-2,3-dihydro-1H-pyrrolo[3,2-b]pyridin-1-yl)-7-fluoro-3-methyl-2-(4-methyl-2-pyridinyl)quinoline] belongs 4.17 nM; to `COc1cc2nc(C)c(C)c(N3CC4(CCOCC4)c4ccc(Br)cc43)c2cc1Cl` [6-bromo-1-(6-chloro-7-methoxy-2,3-dimethyl-4-quinolinyl)-1,2,2′,3′,5′,6′-hexahydrospiro[indole-3,4′-pyran]], 571 nM.
The compound `Cc1c(-c2ccccn2)nc2cc(F)ccc2c1N1CC(C)(C)c2ncc(C3=CCOCC3)cc21` [4-(6-(3,6-dihydro-2H-pyran-4-yl)-3,3-dimethyl-2,3-dihydro-1H-pyrrolo[3,2-b]pyridin-1-yl)-7-fluoro-3-methyl-2-(2-pyridinyl)quinoline] displayed a Ki of 6.47 nM. This Ki lies about 88-fold lower than the previous one.
`Cc1c(-c2ccccn2)nc2cc(F)ccc2c1N1CC2(CCS(=O)(=O)CC2)c2ccc(N3CCOCC3)cc21` [1-(7-fluoro-3-methyl-2-(2-pyridinyl)-4-quinolinyl)-6-(4-morpholinyl)-1,2,2′,3′,5′,6′-hexahydrospiro[indole-3,4′-thiopyran]-1′,1′-dioxide] returned a Ki of 64.4 nM.
In turn, `Cc1nc2ccc(Cl)cc2c(N2CC3(CCOCC3)c3ccc(N4CCOCC4)cc32)c1C` [1-(6-chloro-2,3-dimethyl-4-quinolinyl)-6-(4-morpholinyl)-1,2,2′,3′,5′,6′-hexahydrospiro[indole-3,4′-pyran]] had a Ki of 73 nM. This Ki and that of the compound before are within 1.5-fold of each other.
For the compound `Cc1cc(C)cc(-c2nc3cc(F)ccc3c(N3CC4(CCOCC4)c4ncc(N5CCOCC5)cc43)c2C)c1` [1′-(2-(3,5-dimethylphenyl)-7-fluoro-3-methyl-4-quinolinyl)-6′-(4-morpholinyl)-1′,2,2′,3,5,6-hexahydrospiro[pyran-4,3′-pyrrolo[3,2-b]pyridine]], the affinity, expressed as Ki, was 12.1 nM.
As for `Cc1c(-c2cc(C(F)(F)F)cc(C(F)(F)F)c2)nc2cccc(F)c2c1N1CC(C)(C)c2ccc(N3CCOCC3)cc21` [2-(3,5-bis(trifluoromethyl)phenyl)-4-(3,3-dimethyl-6-(4-morpholinyl)-2,3-dihydro-1H-indol-1-yl)-5-fluoro-3-methylquinoline], the Ki worked out at 3780 nM.
`Cc1c(-c2ccccn2)nc2cc(F)ccc2c1N1CC(C)(C)c2nc(Br)c(N3CCOCC3)cc21` [4-(5-bromo-3,3-dimethyl-6-(4-morpholinyl)-2,3-dihydro-1H-pyrrolo[3,2-b]pyridin-1-yl)-7-fluoro-3-methyl-2-(2-pyridinyl)quinoline] displayed an inhibition constant (Ki) of 33.3 nM.
Turning to `CC1(C)CN(c2c3c(nc4ccc(Cl)cc24)C(C)(C)CC3)c2cc(N3CCOCC3)ccc21` [7-chloro-9-(3,3-dimethyl-6-(4-morpholinyl)-2,3-dihydro-1H-indol-1-yl)-3,3-dimethyl-2,3-dihydro-1H-cyclopenta[b]quinoline], the Ki was 111 nM.
In the case of `Cc1c(Cc2cccc(C#N)c2)nc2cc(F)cc(F)c2c1N1CC(C)(C)c2ncc(N3CCOCC3)cc21` [3-((4-(3,3-dimethyl-6-(4-morpholinyl)-2,3-dihydro-1H-pyrrolo[3,2-b]pyridin-1-yl)-5,7-difluoro-3-methyl-2-quinolinyl)methyl)benzonitrile], affinity was put at a Ki of 2.68 nM.
To `Cc1nc2c(Cl)cccc2c(N2CC3(CCOCC3)c3ncc(N4CCOCC4)cc32)c1C` [1′-(8-chloro-2,3-dimethyl-4-quinolinyl)-6′-(4-morpholinyl)-1′,2,2′,3,5,6-hexahydrospiro[pyran-4,3′-pyrrolo[3,2-b]pyridine]] belongs 2.68 nM.
As for `Cc1c(-c2cccc3ccccc23)nc2cc(F)cc(F)c2c1N1CC(C)(C)c2ncc(N3CCOCC3)cc21` [4-(3,3-dimethyl-6-(4-morpholinyl)-2,3-dihydro-1H-pyrrolo[3,2-b]pyridin-1-yl)-5,7-difluoro-3-methyl-2-(1-naphthalenyl)quinoline], the figure is 230 nM; as for `Cc1c(-c2ccccn2)nc2ncccc2c1N1CC2(CCOCC2)c2ncc(N3CCOCC3)cc21` [1′-(3-methyl-2-(2-pyridinyl)-1,8-naphthyridin-4-yl)-6′-(4-morpholinyl)-1′,2,2′,3,5,6-hexahydrospiro[pyran-4,3′-pyrrolo[3,2-b]pyridine]], 65.9 nM; as for `Cc1c(-c2ccccn2)nc2cccc(F)c2c1N1CC(C)(C)c2ccc(N3CCOCC3)cc21` [4-(3,3-dimethyl-6-(4-morpholinyl)-2,3-dihydro-1H-indol-1-yl)-5-fluoro-3-methyl-2-(2-pyridinyl)quinoline], 156 nM.
In turn, `Cc1c(-c2cc(F)cc(F)c2)nc2cnccc2c1N1CC(C)(C)c2ncc(N3CCOCC3)cc21` [2-(3,5-difluorophenyl)-4-(3,3-dimethyl-6-(4-morpholinyl)-2,3-dihydro-1H-pyrrolo[3,2-b]pyridin-1-yl)-3-methyl-1,7-naphthyridine] returned a Ki of 2.36 nM.
To `Cc1c(-c2ccc3c(ccn3C)c2)nc2cc(F)cc(F)c2c1N1CC(C)(C)c2ncc(N3CCOCC3)cc21` [4-(3,3-dimethyl-6-(4-morpholinyl)-2,3-dihydro-1H-pyrrolo[3,2-b]pyridin-1-yl)-5,7-difluoro-3-methyl-2-(1-methyl-1H-indol-5-yl)quinoline] belongs 195 nM.
Consider `Cc1c(-c2ccccn2)nc2cc(F)ccc2c1N1CCOc2ccc(N3CCOCC3)cc21` [4-(7-fluoro-3-methyl-2-(2-pyridinyl)-4-quinolinyl)-6-(4-morpholinyl)-3,4-dihydro-2H-1,4-benzoxazine], for which the affinity corresponds to a Ki of 351 nM. Compared with the last compound, the Ki is about 1.8-fold higher.
To `Cc1c(-c2ccccn2)nc2cc(F)ccc2c1N1CC2(CCOCC2)c2nc(C#N)c(N3CCOCC3)cc21` [1′-(7-fluoro-3-methyl-2-(2-pyridinyl)-4-quinolinyl)-6′-(4-morpholinyl)-1′,2,2′,3,5,6-hexahydrospiro[pyran-4,3′-pyrrolo[3,2-b]pyridine]-5′-carbonitrile] belongs 219 nM; to `COc1cccc(-c2nc3cc(F)ccc3c(N3CC4(CCOCC4)c4ccc(N5CCOCC5)cc43)c2C)n1` [1-(7-fluoro-2-(6-methoxy-2-pyridinyl)-3-methyl-4-quinolinyl)-6-(4-morpholinyl)-1,2,2′,3′,5′,6′-hexahydrospiro[indole-3,4′-pyran]], 68.8 nM; to `Cc1ccnc(-c2nc3cc(F)cc(F)c3c(N3CC(C)(C)c4ncc(N5CCOCC5)cc43)c2C)c1` [4-(3,3-dimethyl-6-(4-morpholinyl)-2,3-dihydro-1H-pyrrolo[3,2-b]pyridin-1-yl)-5,7-difluoro-3-methyl-2-(4-methyl-2-pyridinyl)quinoline], 18.4 nM.
The compound `COc1cc(-c2nc3cc(F)cc(F)c3c(N3CC4(CCOCC4)c4ncc(N5CCOCC5)cc43)c2C)ccn1` [1′-(5,7-difluoro-2-(2-methoxy-4-pyridinyl)-3-methyl-4-quinolinyl)-6′-(4-morpholinyl)-1′,2,2′,3,5,6-hexahydrospiro[pyran-4,3′-pyrrolo[3,2-b]pyridine]] came in with a Ki of 6.89 nM.
Take `Cc1c(-c2cc(F)cc(F)c2)nc2ncccc2c1N1CC2(CCOCC2)c2ncc(N3CCOCC3)cc21` [1′-(2-(3,5-difluorophenyl)-3-methyl-1,8-naphthyridin-4-yl)-6′-(4-morpholinyl)-1′,2,2′,3,5,6-hexahydrospiro[pyran-4,3′-pyrrolo[3,2-b]pyridine]]: the Ki was found to be 28.2 nM.
As for `Cc1c(Cc2cccc(C(F)(F)F)c2)nc2cc(F)cc(F)c2c1N1CC(C)(C)c2ncc(N3CCOCC3)cc21` [4-(3,3-dimethyl-6-(4-morpholinyl)-2,3-dihydro-1H-pyrrolo[3,2-b]pyridin-1-yl)-5,7-difluoro-3-methyl-2-(3-(trifluoromethyl)benzyl)quinoline], the affinity corresponds to a Ki of 17.3 nM.
To `Cc1c(-c2cccc(C#N)c2)nc2cc(F)ccc2c1N1CC(C)(C)c2ccc(N3CCOCC3)cc21` [3-(4-(3,3-dimethyl-6-(4-morpholinyl)-2,3-dihydro-1H-indol-1-yl)-7-fluoro-3-methyl-2-quinolinyl)benzonitrile] belongs 154 nM.
